Measurements from patent US5051534A, “Novel cyclopropyl squalene derivatives and their use as inhibitors of cholesterol synthesis” (Merrell Dow Pharmaceuticals Inc., priority 1990, dated 1991).

Target: T1, squalene epoxidase (Rattus norvegicus, UniProt P52020)
T1 construct: Microsomes, prepared by ultracentrifugation of homogenates of rat liver; from tissue; host or cells: rat liver microsomes, incubated with the high speed supernatant fraction
Assay: Inhibition of squalene epoxidase in rat liver microsomes (3H-squalene incubation, TLC or HPLC radioactivity)
Assay type: biochemical
Conditions: 37° C., 45 minutes, 60 μM 3H-squalene, 2.0 mM NADPH, 0.01 mM FAD, compounds tested at >0.0 to 100.0 μM
Description: The following assay is used to test compounds for their ability to inhibit 2,3-oxidosqualene lanosterol-cyclase (squalene cyclase) or squalene epoxidase. Microsomes, prepared by ultracentrifugation of homogenates of rat liver, are incubated at 37° C. for 45 minutes in the presence of 60 μM ^3 H-squalene, 2.0 mM NADPH, 0.01 mM FAD, and the high speed supernatant fraction from the microsomal preparation. Blanks, in which NADPH has been omitted, are run simultaneously with the test compounds. Compounds are tested at concentrations of >0.0 to 100.0 μM.
Following incubation the samples are saponified, standards are added to each sample, and then the reaction products are extracted into hexane. The hexane extracts are dried and then the dried extracts are redissolved in chloroform. […] Spots containing the reaction products are scraped from the TLC plates and counted for radioactivity in a scintillation counter. An IC50 is finally calculated.
Incubation reactions are stopped by the addition of chloroform:methanol, standards are added and the reaction products and standards are extracted into chloroform. […] Chromatographic peaks containing reaction products are monitored for radioactivity with a flow-through scintillation counter connected in series with the HPLC column. An IC50 (Inhibitory Concentration) is calculated based on the radioactivity in controls and samples. […]

T1 sequence (P52020 whole entry): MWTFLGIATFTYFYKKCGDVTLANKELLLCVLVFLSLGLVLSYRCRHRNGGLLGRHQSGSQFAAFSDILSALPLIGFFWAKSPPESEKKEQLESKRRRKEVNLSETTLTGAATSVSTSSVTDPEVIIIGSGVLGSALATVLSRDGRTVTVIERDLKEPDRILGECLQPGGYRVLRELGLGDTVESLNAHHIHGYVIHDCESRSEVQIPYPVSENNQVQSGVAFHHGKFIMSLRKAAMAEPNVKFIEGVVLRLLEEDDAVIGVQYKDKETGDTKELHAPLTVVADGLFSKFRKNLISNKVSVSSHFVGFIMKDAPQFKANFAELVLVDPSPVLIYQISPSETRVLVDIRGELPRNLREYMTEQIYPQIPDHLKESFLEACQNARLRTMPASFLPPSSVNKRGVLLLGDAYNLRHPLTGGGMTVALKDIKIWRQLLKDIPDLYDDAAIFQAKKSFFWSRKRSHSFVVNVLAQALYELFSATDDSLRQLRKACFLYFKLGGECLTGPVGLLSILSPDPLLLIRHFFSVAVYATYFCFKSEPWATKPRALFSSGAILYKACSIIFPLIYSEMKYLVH

IC50: 42 µM
Structure (SMILES): CC(C)=CCC/C(C)=C/CC/C(C)=C/CC/C=C(\C)CC/C=C(\C)CCCOC1CC1 [Compound 1, 4,8,13,17,21-Pentamethyl-4,8,12,16,20-docosapentaen-l-ol cyclopropyl ether]
